In general, Ki refers to the equilibrium dissociation constant of an inhibitor or competing ligand from its target. What is called IC50 is the point on the concentration scale where inhibition reaches its midpoint.

28 compounds from patent US20260015372A1, “Organophosphorous Compounds and Uses Thereof” (priority 2022, published 2026) can be followed below.

In series [1] the target is T1, BCHE (Homo sapiens (Human), UniProt P06276). The series is described as follows: biochemical. It is filed as biochemical. To be noted: for Mode of Inhibition: Irreversible = enzyme covalently modified. The procedure:
The compounds referred to herein have BCHE inhibitory activity. To determine the inhibitory values, enzymes were incubated for 2 hours in the presence of varying concentrations of compound prior to activity measurements. Activity is then measured colorimetrically upon addition of substrate and Ellman's reagent.

Series [2] deals with T2, ACHE (Homo sapiens (Human), UniProt P22303). Briefly: ACHE inhibition, colorimetric with substrate and Ellman's reagent. It is filed as biochemical. To be noted: for Inhibition of ACHE: [ATC] = 0.1 mM. Background: Ellman's reagent forms a yellow product with free thiols.
Series [3] addresses T2, ACHE. Briefly: Relative Activity of ACHE, 20 μM inhibitor for 2 minutes. It is filed as biochemical. To be noted: Activity of Inhibitor incubated enzyme/Activity of unincubated enzyme. On the procedure: In order to compare the relative inhibitory activity of the five compounds 27, 35, 89, 90 and 92 against BCHE and ACHE, a solution of each enzyme was incubated with 20 μM of the inhibitor for 2 minutes, and the enzyme activity determined. Table 5 lists the Relative Activity (=Activity of Inhibitor incubated enzyme/Activity of unincubated enzyme).

Series [4] deals with T1, BCHE. It is filed as biochemical. The conditions noted are these: 20 μM inhibitor, 2 minutes; Activity of Inhibitor incubated enzyme/Activity of unincubated enzyme.
Series [5] can be described thus: In vivo blood brain barrier crossing. The conditions noted are these: other in vivo tests.
The test system of the next series is β-amyloid plaque. The series is described as follows: In vivo β-amyloid plaque formation, immunohistochemistry. Also noted: species or system transgenic Alzheimer's mice. An excerpt:
Images show immunohistochemistry of 13-month transgenic Alzheimer's disease mice brains at subiculum region of hippocampus, treated with DB2CIPP and DMSO control beginning at 9 months. […] Selective inhibition of butyrylcholinesterase in the brain is widely documented as a potential treatment for Alzheimer's disease and dementia, by improving cognition and modulating neuropathological markers of the disease. As an inhibitor of butyrylcholinesterase, DB2CIPP may also be used to inhibit or slow the progression of the Alzheimer's-like symptoms seen in long COVID.

Series [6] has as its target serum acetylcholinesterase (Mus musculus (Mouse), UniProt P21836). Briefly: In vivo serum acetylcholinesterase activity. Also noted: species or system transgenic Alzheimer's mice. The conditions noted are these: 10 mg and 20 mg doses over 11 months and 13 months; listed as DB2CIPP. An excerpt:
(§1) DB2CIPP Testing Results Inhibition of BChE in brain and serum. Di-n-butyl 2 chlorophenyl phosphate (DB2CIPP) inhibits BChE in brain and serum without inhibiting AChE in serum (see FIG. 5, FIG. 7, and FIG. 8).

The target of series [7] is hippocampal butyrylcholinesterase (Mus musculus (Mouse), UniProt Q03311). The series is described as follows: In vivo hippocampal butyrylcholinesterase activity. Also noted: species or system transgenic Alzheimer's mice. The conditions noted are these: 10 mg and 20 mg doses over 11 months; listed as DB2CIPP.
Source text: as §1

The target in series [8] is serum butyrylcholinesterase (Mus musculus (Mouse), UniProt Q03311). Briefly: In vivo serum butyrylcholinesterase activity. The arrangement: species or system transgenic Alzheimer's mice. To be noted: 10 mg and 20 mg doses over 11 months and 13 months; listed as DB2CIPP.
Source text: as §1

Another series deals with Aβ (1-40) peptide (Homo sapiens, UniProt P05067). Briefly: Thioflavin T fluorescence assay of β-amyloid peptide aggregation. The conditions noted are these: 30 μM peptide, 25° C., 2 hours, ThT fluorescence. It is filed as biochemical. On the procedure:
Neurotoxic plaques, i.e., aggregates of β-amyloid peptide, bind thioflavin T (ThT) and show significant fluorescence.
Aβ (1-40) peptide was solubilized in hexafluoroisopropanol (HFIP). A solution of 25 μM ThT was prepared in 0.025 M phosphate buffer, pH 6.0. Peptide was dissolved in 0.01 M PBS; 0.1M NaCl, pH7.4 to a final concentration of 30 μM. Inhibitors were prepared in methanol. The final concentration of HFIP and methanol were 2% and 10% (v/v) respectively. The control sample consisted peptide incubated in PBS/2% HFI/10% methanol without inhibitor. All samples were mixed and incubated at 25° C. for 2 hours. Fluorescence was measured by mixing 470 μL of ThT solution with 30 μL of the protein solution. Excitation and emission wavelengths were 440 nm with 5 nm slit width and 485 nm with 10 nm slit width, respectively. Biological activity was calculated as percent of inhibitory activity of inhibitor at varying concentration was calculated using the following equation: Vi=100−[(Fi−Fb)/F0]×100. The higher the Vi, the less aggregation of amyloid peptide.

Where [9] appears, read: enzyme incubated 2 hours with compound.
The mark [10] stands for this setting: enzyme incubated 2 hours with compound, read-out: BCHE Ki ± SEM.

“Also recorded” adds a separate entry of the source. Like-named read-outs stand apart in the source and are kept apart here.

T2 sequence (P22303 32-614): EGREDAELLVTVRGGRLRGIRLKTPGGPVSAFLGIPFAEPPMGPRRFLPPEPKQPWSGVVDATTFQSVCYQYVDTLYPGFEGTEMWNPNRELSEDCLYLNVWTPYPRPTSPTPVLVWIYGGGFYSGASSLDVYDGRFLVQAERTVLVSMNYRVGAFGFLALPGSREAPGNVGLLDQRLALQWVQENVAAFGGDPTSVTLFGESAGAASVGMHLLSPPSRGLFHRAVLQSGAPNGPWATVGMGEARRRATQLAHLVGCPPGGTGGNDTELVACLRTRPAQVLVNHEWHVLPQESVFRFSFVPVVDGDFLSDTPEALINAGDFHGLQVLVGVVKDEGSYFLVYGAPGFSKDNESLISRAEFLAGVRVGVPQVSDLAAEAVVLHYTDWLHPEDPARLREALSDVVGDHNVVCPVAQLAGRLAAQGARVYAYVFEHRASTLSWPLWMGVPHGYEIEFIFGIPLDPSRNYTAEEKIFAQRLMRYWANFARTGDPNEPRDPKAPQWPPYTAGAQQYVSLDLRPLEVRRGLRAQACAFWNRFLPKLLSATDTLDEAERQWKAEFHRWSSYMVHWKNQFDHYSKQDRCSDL
T1 sequence (P06276 29-602, species assumed): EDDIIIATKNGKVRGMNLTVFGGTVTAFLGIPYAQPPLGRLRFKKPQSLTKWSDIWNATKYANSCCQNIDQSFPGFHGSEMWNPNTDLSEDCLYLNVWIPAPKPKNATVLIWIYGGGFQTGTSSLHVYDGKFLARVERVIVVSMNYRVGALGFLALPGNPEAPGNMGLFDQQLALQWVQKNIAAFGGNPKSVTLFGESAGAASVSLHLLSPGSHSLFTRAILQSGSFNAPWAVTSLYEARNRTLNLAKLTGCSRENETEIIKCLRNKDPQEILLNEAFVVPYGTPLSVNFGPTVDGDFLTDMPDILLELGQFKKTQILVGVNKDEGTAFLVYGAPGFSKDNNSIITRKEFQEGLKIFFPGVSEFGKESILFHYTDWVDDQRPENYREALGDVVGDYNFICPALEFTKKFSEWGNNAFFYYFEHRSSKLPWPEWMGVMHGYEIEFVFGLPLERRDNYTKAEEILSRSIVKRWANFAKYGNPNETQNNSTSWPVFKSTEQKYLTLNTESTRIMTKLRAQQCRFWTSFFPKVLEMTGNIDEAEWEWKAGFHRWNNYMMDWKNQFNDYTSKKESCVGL
Sequence of hippocampal butyrylcholinesterase (Q03311 30-603 limits assumed): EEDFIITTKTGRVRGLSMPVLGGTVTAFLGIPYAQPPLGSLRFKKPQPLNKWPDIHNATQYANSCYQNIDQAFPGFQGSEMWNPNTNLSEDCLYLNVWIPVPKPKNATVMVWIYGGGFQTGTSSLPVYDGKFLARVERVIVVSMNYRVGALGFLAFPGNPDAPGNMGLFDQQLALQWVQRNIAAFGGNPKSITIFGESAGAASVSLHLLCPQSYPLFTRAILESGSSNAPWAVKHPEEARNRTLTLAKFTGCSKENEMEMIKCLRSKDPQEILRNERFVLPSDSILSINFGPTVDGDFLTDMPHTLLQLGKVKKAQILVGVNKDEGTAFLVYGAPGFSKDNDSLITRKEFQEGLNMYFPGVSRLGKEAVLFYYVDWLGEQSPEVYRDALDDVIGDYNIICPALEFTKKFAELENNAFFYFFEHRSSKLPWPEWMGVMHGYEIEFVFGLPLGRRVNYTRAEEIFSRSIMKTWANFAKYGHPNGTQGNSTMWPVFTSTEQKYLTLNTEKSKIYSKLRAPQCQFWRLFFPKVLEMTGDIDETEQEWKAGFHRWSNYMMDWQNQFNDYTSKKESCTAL
Sequence of serum butyrylcholinesterase (Q03311 30-603 limits assumed): as above
Sequence of serum acetylcholinesterase (P21836 32-614 limits assumed): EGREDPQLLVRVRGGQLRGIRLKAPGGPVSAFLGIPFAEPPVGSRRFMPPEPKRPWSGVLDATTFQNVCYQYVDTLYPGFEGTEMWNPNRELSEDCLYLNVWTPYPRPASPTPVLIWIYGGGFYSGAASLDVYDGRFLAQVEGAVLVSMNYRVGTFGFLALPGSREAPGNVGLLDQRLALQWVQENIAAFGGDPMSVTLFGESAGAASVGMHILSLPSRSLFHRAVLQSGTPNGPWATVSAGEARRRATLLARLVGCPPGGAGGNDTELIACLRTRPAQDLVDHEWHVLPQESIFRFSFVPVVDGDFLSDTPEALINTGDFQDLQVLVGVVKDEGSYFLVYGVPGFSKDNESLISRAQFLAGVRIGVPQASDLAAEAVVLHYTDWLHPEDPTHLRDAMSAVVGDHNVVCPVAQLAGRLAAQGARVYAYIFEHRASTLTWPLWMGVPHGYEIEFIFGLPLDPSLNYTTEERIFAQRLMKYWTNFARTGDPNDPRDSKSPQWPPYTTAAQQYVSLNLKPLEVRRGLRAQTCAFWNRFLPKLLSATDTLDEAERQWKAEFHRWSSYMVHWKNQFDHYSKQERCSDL

As for `O=P(Oc1ccccc1)(OC1CCCCC1)OC1CCCCC1` [Compound 98, Di-cyclohexyl phenyl phosphate], at BCHE [1], the affinity, expressed as Ki, was 7 µM and the “Mode of Inhibition” value is given as “^aPartial competitive”. On ACHE [2] (inhibitor 3 mM), the “Inhibition of ACHE” value was “^eNo inhibition at [1f] = 3 mM and [ATC] = 0.1 mM”.
`CCCCOP(=O)(OCCCC)Oc1ccccc1` [Compound 96, Di-n-butyl phenyl phosphate]: at ACHE [2] (inhibitor 1 mM), the “Inhibition of ACHE” value is “^cNo inhibition at [1d] = 1 mM and [ATC] = 0.1 mM”.
Regarding `CCCCOP(=O)(OCCC=CCCOP(=O)(OCCCC)OCCCC)OCCCC` [Compound 66, Tetrabutyl 3-hexene-1,6-diyl bisphosphate], the IC50 on BCHE [1] (setting [9]) was 1.2 µM.
For `CCOP(=O)(OCC)OCCCOP(=O)(OCC)OCC` [Compound 53, Tetraethyl propane-1,3-diyl bisphosphate], the IC50 on BCHE [1] (setting [9]) turned out to be 8.26 µM.
With `CCCOP(=O)(OCCC)Oc1ccccc1` [Compound 95, Di-n-propyl phenyl phosphate], the “Inhibition of ACHE” value on ACHE [2] (inhibitor 5 mM) was “^b<20% Inhibition at [lc] = 5 mM and [ATC] = 0.1 mM”.
On to `CCCCOP(=O)(OCC)Oc1ccccc1` (racemic) [Compound 99, (±)-n-Butyl ethyl phenyl phosphate], for which the “Inhibition of ACHE” value at ACHE [2] (inhibitor 3 mM) was “^f<8% inhibition at [2] = 3 mM and [ATC] = 0.1 mM”.
Consider `CCCCOP(=O)(OCCCC)OCCCOP(=O)(OCCCC)OCCCC` [Compound 59, Tetrabutyl propane-1,3-diyl bisphosphate], for which, on BCHE [1] (setting [9]), the IC50 turned out to be 0.79 µM.
`CCCCOP(=O)(OCCCC)Oc1ccc2ccccc2c1` [Compound 35, Di-n-butyl 2-napthyl phosphate]: on BCHE [1], the affinity corresponds to a Ki of 1.9 µM and the “Mode of Inhibition” value is recorded as “Reversible”. For the same compound, the “Relative Activity of ACHE” value on ACHE [3] came to 0.84. Moreover, at BCHE [4], the “Relative Activity of BCHE” value is listed as 0.10.
As for `CCCCOP(=O)(OCCCC)OCCCCCCCCOP(=O)(OCCCC)OCCCC` [Compound 64, Tetrabutyl octane-1,8-diyl bisphosphate], the IC50 at BCHE [1] (setting [9]) was 2.39 µM.
With `CCCCOP(=O)(OCCCC)Oc1ccccc1Cl` [Compound 9, Di-n-butyl 2-chlorophenyl phosphate], in series [5], the “Ability to cross the blood brain barrier (BBB)” value was “cross the blood brain barrier”. In addition, the “Beta amyloid plaques immunopositive staining in the hippocampus” value in the series with β-amyloid plaque (10 mg or 20 mg doses over 13 months, vs untreated mice) is reported as “reduced”. Moreover, the “Inhibition of β-amyloid plaque formation” value with β-amyloid plaque (13-month mice, subiculum region of hippocampus, treated beginning at 9 months, vs DMSO control, listed as DB2CIPP) is reported as “significant inhibition”. Moreover, in series [6], the Serum acetylcholinesterase activity entry is reported as “substantially not altered; also recorded: not significantly altered”. Moreover, the IC50 against BCHE [1] is 0.00069 µM; at BCHE [1] (setting [9]) it was 0.00069 µM; on ACHE [2], 47 µM; at ACHE [2] (setting [9]) it was 47 µM. In addition, at BCHE [1] (ACHE IC50 vs BCHE IC50), the “Selectivity toward BCHE over ACHE” value is reported as “approximately 68,000 fold”. The “Mode of Inhibition” value at BCHE [1] was “Irreversible^g”. The “Inhibition of hippocampal butyrylcholinesterase activity” value in [7] is “significant inhibition”. For the same compound, the “Inhibition of serum butyrylcholinesterase activity” value in series [8] is reported as “significant inhibition”. Further, the “Inhibition of aggregation of β-amyloid peptides” value at Aβ (1-40) peptide is “did not inhibit”.
On to `CCOP(=O)(OCC)OCCCCOP(=O)(OCC)OCC` [Compound 54, Tetraethyl butane-1,4-diyl bisphosphate], for which, at BCHE [1] (setting [9]), the IC50 was 8.2 µM.
On the same count and under the same terms, the figure for `CCCCOP(=O)(OCCCC)OCCCCCOP(=O)(OCCCC)OCCCC` [Compound 61, Tetrabutyl pentane-1,5-diyl bisphosphate] is 2.72 µM.
As to `CCOP(=O)(OCC)Oc1ccccc1` [Compound 94, Diethyl phenyl phosphate], the inhibition constant Ki at BCHE [1] is 55 µM; on ACHE [2] it was 3100 µM.
Turning to `CCCCOP(=O)(OCCCC)OCCCCOP(=O)(OCCCC)OCCCC` [Compound 60, Tetrabutyl butane-1,4-diyl bisphosphate], the IC50 at BCHE [1] (setting [9]) came to 88.1 µM.
As for `CCCCOP(=O)(OCCCC)OCCCCCCOP(=O)(OCCCC)OCCCC` [Compound 62, Tetrabutyl hexane-1,6-diyl bisphosphate], at BCHE [1], the “Mode of Inhibition” value was “Reversible”. For the same compound, the Ki on BCHE [1] (setting [10]) was 4 µM. Besides, on Aβ (1-40) peptide, the “Inhibition of aggregation of β-amyloid peptides” value is “significantly inhibited”.
On to `CCCCOP(=O)(Cc1ccc2ccccc2c1)OCCCC` [Compound 90, Di-n-butyl 2-naphthylmethylphosphonate], for which, on BCHE [1], the “Mode of Inhibition” value is “Irreversible^g”. For the same compound, the “Relative Activity of ACHE” value at ACHE [3] is listed as 0.95. Moreover, the “Relative Activity of BCHE” value on BCHE [4] is reported as 0.45.
On to `CCOP(=O)(OCC)OCCCCCCOP(=O)(OCC)OCC` [Compound 56, Tetraethyl hexane-1,6-diyl bisphosphate], for which the “Mode of Inhibition” value at BCHE [1] is “Reversible”. The Ki on BCHE [1] (setting [10]) was found to be 228 µM. Also, on Aβ (1-40) peptide, the “Inhibition of aggregation of β-amyloid peptides” value was “significantly inhibited”.
Regarding `CCCCOP(=O)(Cc1cccc2ccccc12)OCCCC` [Compound 89, Di-n-butyl 1-naphthylmethylphosphonate], the “Mode of Inhibition” value on BCHE [1] was “Irreversible^g”. Further, the “Relative Activity of ACHE” value on ACHE [3] was 0.96. Moreover, on BCHE [4], the “Relative Activity of BCHE” value was determined as 0.47.
On to `CCOP(=O)(OCC)OCCCCCOP(=O)(OCC)OCC` [Compound 55, Tetraethyl pentane-1,5-diyl bisphosphate], for which, at BCHE [1] (setting [9]), the IC50 was 35.4 µM.
With `CCCCOP(=O)(OCCCC)OCCCCCCCOP(=O)(OCCCC)OCCCC` [Compound 63, Tetrabutyl heptane-1,7-diyl bisphosphate], the IC50 on BCHE [1] (setting [9]) was determined as 3.95 µM.
Take `CCCCOP(=O)(Cc1cc(C)cc(C)c1)OCCCC` [Compound 92, Di-n-butyl 3,5-dimethylbenzylphosphonate]: the “Mode of Inhibition” value at BCHE [1] is “Irreversible^g”. In addition, at ACHE [3], the “Relative Activity of ACHE” value was 0.99. The “Relative Activity of BCHE” value at BCHE [4] is listed as 0.64.
Consider `CCCCOP(=O)(OCCCC)Oc1cc(C)cc(C)c1` [Compound 27, Di-n-butyl 3,5-dimethylphenyl phosphate], for which, at BCHE [1], affinity was put at a Ki of 1 µM and the “Mode of Inhibition” value is “Reversible”. Besides, the “Relative Activity of ACHE” value at ACHE [3] is reported as 0.93. In addition, the “Relative Activity of BCHE” value at BCHE [4] came to 0.45.
In the case of `CCCCCOP(=O)(OCCCCC)Oc1ccccc1` [Compound 97, Di-n-pentyl phenyl phosphate], at BCHE [1], affinity was put at a Ki of 6 µM and the “Mode of Inhibition” value was “^aPartial competitive”. Also, the “Inhibition of ACHE” value at ACHE [2] (inhibitor 3 mM) was “^d<8% Inhibition at [le] = 3 mM and [ATC] = 0.1 mM”.
Consider `O=P(OCCCCCCOP(=O)(Oc1ccccc1)Oc1ccccc1)(Oc1ccccc1)Oc1ccccc1` [Compound 67, Tetraphenyl hexane-1,6-diyl bisphosphate], for which the “Mode of Inhibition” value on BCHE [1] was “Reversible”. At Aβ (1-40) peptide, the “Inhibition of aggregation of β-amyloid peptides” value was “significantly inhibited”.
Regarding `CCOP(=O)(OCC)OCCOCCOP(=O)(OCC)OCC` [Compound 58, Tetraethyl 3-oxapentane-1,5-diyl bisphosphate], at BCHE [1] (setting [9]), the IC50 is 11.1 µM.
On the same count and under the same terms, the value for `CCOP(=O)(OCC)OCCCCCCCOP(=O)(OCC)OCC` [Compound 57, Tetraethyl heptane-1,7-diyl bisphosphate] was 40.1 µM.
On the same count and under the same terms, the figure for `CCCCOP(=O)(OCCCC)OCCOCCOP(=O)(OCCCC)OCCCC` [Compound 65, Tetrabutyl 3-oxapentane-1,5-diyl bisphosphate] is 31.2 µM.
For `COP(=O)(OC)Oc1ccccc1` [Compound 93, Dimethyl phenyl phosphate], the values for the Ki on BCHE [1] and at ACHE [2] were 1700 µM and 6500 µM, respectively.
